In series [1] the test system is primary human dermal fibroblasts (HDF). The series is described as follows: Primary human dermal fibroblast (HDF) proliferation assay (2D), with or without wound exudate. To be noted: for HDF proliferation, PARP inhibitor alone: talazoparib 1 μM. In kind it is cell-based. As to the method: (§1) Primary human dermal fibroblasts (HDF) were purchased from CELLnTEC, Bern. They were routinely grown in Dulbecco's modified Eagle's medium (DMEM) containing 10% FCS, 2 mM glutamine, and 100 U/ml penicillin/100 μg/ml streptomycin. Media, antibiotics, and glutamine were bought from Lonza. The cells were used at passage 5-15. Cells were trypsinized and seeded at 5000 cells/well in 200 μl into the inner wells of 96-well plates. The outer wells were loaded with sterile water. The cells were allowed to adhere overnight and then incubated for 72 hours at 37° C. under the following conditions: graded compound concentrations or 20 ng/ml PDGF-BB (Tonbo Biosciences) in the absence or presence of different dilutions of sterile-filtered WE in medium. For control samples, 200p1 medium was added instead of specific stimuli. Alternatively, the cells were seeded into 384-well plates at 2500 cells/well directly together with test compounds or growth factors and WE or medium in a total volume of […].
(§2) At the end of the 72-hour incubation period, supernatants were removed for the determination of IL-1ß, and the cells were fixed with 4% paraformaldehyde (Morphisto) for 15 minutes at room temperature and washed 3 times with PBS. A control plate was fixed after the overnight adherence of the cells (day 1) to determine the starting cell number.
Total cellular protein was determined as a measure of cell number by staining the fixed cells with sulforhodamine B (SRB, Sigma). A 0.4% SRB solution in 1% acetic acid was added to the wells for 30 minutes. The wells were then washed with 1 acetic acid until the wash solution remained colorless. After drying, the dye was eluted with 10 mM Tris.HCl, pH8.5, and absorbance was measured either at 550 or 492 nm for lower and higher cell densities, respectively. The average absorbance of the sample representing the day 1 starting cell number (for 96-well plates) was subtracted from the absorbance values of the WE-treated cells.
All experiments were carried out in triplicate for each sample and concentration, and means±standard deviation (SD) were used for the evaluation of the experiment. Results are expressed as percentage of control values for unstimulated cells.
Low molecular weight compounds (see list in Table 1) were dissolved in DMSO (Bioreagent for cell culture, Sigma) at 10 mM or 100 mM and diluted at least 1:1000 in medium for cellular assays (final DMSO concentration ≤0.1%).
(§3) Cells were incubated with compounds for 72 hours in proliferation assays and up to 8 days for FDM assay (refreshed after 4 days). When compounds were tested for their effect on WE stimulation, the incubation of cells with compounds was started and ended simultaneously with WE-incubation.

For series [2] the test system is unchanged. The series can be described thus: Fibroblast-derived matrix (FDM) formation assay (3D), with or without wound exudate. The format is cell-based. Conditions: for fibroblast-derived matrix (FDM) formation: presence of WE #78 (FIG. 9). As to the method:
HDF cells were seeded at 5000 cells/well on day −3 into 96-well tissue culture plates (1250 cells/well for 384-well plates), which had been pre-coated for 1 hour at 37° C. with 0.2% gelatin solution (Sigma). When the cells reached confluence (=day 0), a matrix promoting supplement (vitamin C: 2-phospho-L-ascorbic acid trisodium salt, 100 μg/ml; Sigma) was added together with test samples containing PDGF-BB, TGF-ß1 or graded concentrations of compounds −/+WE as described for the HDF proliferation assay. After 4 days, medium was replaced by fresh vitamin C- and stimulus- as well as compound-containing medium, maintaining the conditions initiated on day 0. TGF-ß1 and PDGF-BB were included as positive controls to promote FDM formation and cell growth, respectively. After a total incubation time of 8 days, FDM production was measured in fixed cultures via SRB staining and evaluated as described above. In some cases, the experiment was stopped and evaluated already on day 4.
Low molecular weight compounds (see list in Table 1) were dissolved in DMSO (Bioreagent for cell culture, Sigma) at 10 mM or 100 mM and diluted at least 1:1000 in medium for cellular assays (final DMSO concentration ≤0.1%). Compounds were typically tested in half-logarithmic dilution series (1:3.33), starting at 10 μM or 100 μM as the highest compound concentration.
as §3

The test system of another series is IL-1ß. The series can be described thus: IL-1ß secretion by HDF in the presence of wound exudate (ELISA). To be noted: FIG. 22; WE #43 and #78 used with veliparib. In kind it is cell-based, human. The method, then: as §1, §2
IL-1ß levels were determined with a commercial ELISA kit. The amount of IL-1ß contained in the wound exudate added to the cells was subtracted from the total IL-ß in the supernatants in order to determine the cytokine secreted by the cells.
(An ELISA detects its analyte on a solid surface through an enzyme-linked reagent.)

Another series relates to IL-1α. The series is described as follows: Fibroblast-macrophage coculture with wound exudate: IL-1α. In kind it is cell-based, human. Conditions: WE #78; veliparib 10 μM, talazoparib 0.1 μM. The method, then:
CD14^+ monocytes, isolated from PBMC of healthy donors by magnetic bead separation were incubated either alone or in the presence of primary human dermal fibroblasts (CelINTec) or fibroblast-derived matrices (FDM). FDM had been generated from primary human dermal fibroblasts by a 3-week incubation with the growth supplements vitamin C or insulin and EGF (vitamin C: 2-phospho-L-ascorbic acid trisodium salt, 100 μg/ml; human EGF, 5 ng/ml; human insulin, 5 μg/ml). Alternatively, fibroblast monolayer cultures can be used as well. After 4 days to a week to allow for macrophage differentiation in the presence or absence of M-CSF (25 ng/ml), the cultures were stimulated overnight with graded concentrations of test compounds in the absence or presence of various dilutions of sterile-filtered WE. IFN-g (50 ng/ml), LPS (100 ng/ml) and IL-4 (25 ng/ml) or combinations thereof served as controls for M1 and M2 macrophage induction. For negative control samples, medium was added instead of specific stimuli. WE were added to the culture medium for overnight stimulation at dilutions ranging from 1:25 to 1:100.
Supernatants were harvested and frozen for cytokine determination by ELISA, and cells were harvested and subjected to FACS analysis, gating on the monocyte population. Geometric means or mean fluorescence intensities (MFI) were used to quantify surface marker expression. […]

A further series has as its system cells. The series can be described thus: Titration to reveal potential toxic effects on cells. The format is cell-based. Conditions: titrated on cells. As to the method: Mifepristone, a glucocorticoid and progesterone receptor antagonist, was titrated to reveal potential toxic effects on cells and then used at the well tolerated concentration of 1 μM to counteract glucocorticoid- and progesterone-type compounds (dexamethasone, prednisolone, medroxyprogesterone, etc.). Protein growth factors (see list in Table 1) were dissolved according to the manufacturers' recommendations and used at final concentrations ranging from 0.02 to 1000 ng/ml.

Series [3] deals with alpha-smooth muscle actin (α-SMA). The series can be described thus: Immunolocalization of alpha-smooth muscle actin in 2D fibroblast culture (myofibroblast differentiation). The format is cell-based, human. To be noted: TGF-ß 20 ng/ml. As to the method:
as §1, with “The cells were allowed to adhere overnight and then incubated for 72 hours at 37° C. under the following conditions: graded compound concentrations or 20 ng/ml PDGF-BB (Tonbo Biosciences) in the absence or presence of different dilutions of sterile-filtered WE in medium.” left out
After fixation with paraformaldehyde, the cells were incubated for 1 hour at room temperature with a monoclonal mouse-anti-human antibody against alpha-smooth muscle actin (α-SMA) from e-Bioscience, washed 3 times with PBS and developed with an Alexa Fluor-labelled donkey-anti-mouse IgG (Molecular Probes). The cells were washed 3 times with PBS and examined in a Zeiss ZEISS Observer.Z1 microscope, using the software AxioVision 48.

Entries after “also recorded” stand apart in the source; their conditions may differ.

The values that follow come from patent US20200129476A1, “PARP Inhibitor in Combination with a Glucocorticoid and/or Ascorbic Acid and/or a Protein Growth Factor for the Treatment of Impaired Wound Healing” (AKRIBES BIOMEDICAL GMBH, priority 2017, published 2020).

For the molecule `Cn1ncnc1[C@H]1c2n[nH]c(=O)c3cc(F)cc(c23)N[C@@H]1c1ccc(F)cc1` [talazoparib], the “cell proliferation under wound exudate-induced inhibition” value in series [1] (FIG. 22, WE #43 and #78 used with veliparib) is on record as “enhanced cell proliferation”. Also, the “HDF proliferation, PARP inhibitor plus PDGF” value is listed as “even further enhanced by the addition of PDGF” in series [1] (PARP inhibitor dose series + PDGF 20 ng/ml, WE #78 (FIG. 18)) and “additively or synergistically enhanced by PDGF” in series [1] (veliparib 10 μM, talazoparib 1 μM + PDGF 20 ng/ml, WE #78 (FIG. 17B)). Moreover, the “fibroblast (HDF) proliferation” value in series [1] (presence of WE #43) is given as “strongly beneficial effects”; in series [1] (presence of WE #78 (diabetic patient)), “strongly beneficial effects; also recorded: dose-dependent increase of HDF proliferation”. In series [1] (talazoparib 0.3 μM, WE #78 (FIG. 19)), the HDF proliferation result was “rescues the cells from the inhibitory effect of the WE; also recorded: rescued the cells from the inhibitory effect of the wound exudate”. For the same molecule, the “HDF proliferation, PARP inhibitor alone” value in series [1] (veliparib 10 μM, WE #78 (FIG. 17B)) is recorded as “induce proliferation”; in series [1] (veliparib 10 μM, absence of WE (FIG. 17A)) it was “no or even an inhibitory effect on fibroblasts on their own”. Moreover, the “fibroblast-derived matrix (FDM) formation” value in series [2] is given as “strong positive effect”; in series [2] (listed as Talazoparib), “most active of the PARP inhibitors tested in 3D culture”. Moreover, in series [2] (presence of wound exudate, WE not specified (FIG. 6: microscopy)), the “fibroblast-derived matrix (FDM/ECM) formation” value is recorded as ““cleaned up” WE-induced fibroblast matrix inhibition”. In addition, the “IL-1ß secretion induced by wound exudate” value with IL-1ß is on record as “reducing IL-1ß secretion”. Besides, in the series with IL-1α, the “IL-1α induced by wound exudate” value is reported as “reduced”.
As for `CC#C[C@]1(O)CC[C@H]2[C@@H]3CCC4=CC(=O)CCC4=C3[C@@H](c3ccc(N(C)C)cc3)C[C@@]21C` [mifepristone, Mifepristone], the “reversal of glucocorticoid effects on HDF proliferation” value in series [1] (mifepristone as antagonist, WE present) is given as “reversible”. In addition, the well tolerated concentration in the series on cells was found to be 1 µM.
Regarding “TGF-ß: Transforming growth factor beta, protein growth factor”, the “staining for α-SMA” value in series [3] (absence of WE, veliparib 10 μM) is reported as “increased the staining for the myofibroblast marker alpha-smooth muscle actin (α-SMA)”; in series [3] (presence of WE #78), “does not induce α-SMA on its own; also recorded: did not induce α-SMA on its own”.
